Patent publication US8901042B2, “High throughput screen for measuring membrane effects” (Cornell University, priority 2009, dated 2014)
Where two headings read alike, the source gives them in different places.

How the values were obtained:
[1] = test system: gramicidin A (gA) channels in DC22:1PC lipid bilayer vesicles; test: gramicidin-based stopped-flow fluorescence quench assay (Tl+ influx into ANTS-filled, gA-doped LUVs); assay type: biochemical, Bacillus brevis; conditions: for Flourescence: concentration at which the molecules double/half the rate of the fluorescence quenching: fitted stretched exponential, rate at 2 ms, DC22:1PC LUVs; for rate of quencher influx (rate of stretched exponential): 260 nM gA, mean±SD, n>10, control 36±6
Protocol: 24 hours before fluorescence measurements, ANTS-filled liposomes were mixed 1:20 in S_Na_Buffer. For the portion of liposomes that are to be doped with gramicidin, the desired amount of gramicidins was added at this time. […] Gramicidin diluted in DMSO was used, but the added DMSO was kept to an absolute minimum (<0.1% of volume) as DMSO of >0.5% affects bilayer properties. The solution was stored at 12-13° C. in the dark.
The modifier in question was diluted in DMSO. The same amount of DMSO was added to all samples, including control.
For each condition: • 1. Use 1.5 mL of diluted ANTS-liposomes for each condition (compound, concentration). • 2. Add compound at the desired concentration and incubate for 10 min at 25° C. (keep in dark), or DMSO for controls. • 3. Record fluorescence, x8 repeats, with S_Na_Buffer (the first four should be removed due to mixing). • 4. Record fluorescence, x12 repeats, with S_Tl_Quencher (the first four should also be removed due to mixing).
Generate fluorescent liposomes. […] 1,2-Dierucoyl-sn-Glycero-3-Phosphocholine lipids, from Avanti Polar Lipids (Alabaster, Ala.), were bought in a lipid/chloroform solution and used without further purification. For each batch of vesicles, the lipid/chloroform solution was dried under nitrogen and then further dried in a dessicator under vacuum overnight to fully remove the chloroform. The dried lipid film was rehydrated in 100 mM NaNO3, 25 mM ANTS, 10 mM HEPES at pH 7.0 at room temperature over night, volume was adjusted to give a 10 mM lipid concentration. The suspension was then sonicated in a low power sonicator for 1 min, subjected to 5-6 freeze thaw cycles and extruded 21 times, at room temperature, using Avanti mini-extruder, Avanti Polar Lipids (Alabaster, Ala.), and a 0.1 μm Polycarbonate Membrane filter. External ANTS was removed by filtering though a PD-10 Desalting column, GE Healthcare (Piscataway, N.J.). Prepared ANTS-LUV stock was stored at 12-13° C. in the dark for a maximum of seven days. Before the fluorescence experiments ANTS-LUV stock was diluted 1:20 with 140 mM NaNO3, 10 mM HEPES, pH 7.0 buffer. For the portion of vesicles to be doped with gA the desired amount of gramicidin from Bacillus aneurinolyticus, Sigma Chemical Co. (St. Louis, Mo.), diluted in dimethylsulfoxide (DMSO) was added and incubated for 24 hours at 12-13° C. in the dark.
The final DMSO concentrations were kept consistent for all samples and under 0.5% with the exception of when DMSO was tested, then listed amounts where used and no DMSO was added to controls.
The fluorescence was measured using a SX.20 Stopped-Flow Spectrometer (Applied Photophysics, Leatherhead, UK), with a 150-W Xenon lamp, a two sample rapid mixing unit with machine dead time˜1.2 ms and a thermostatting water bath set to 25° C. The samples were excited at X=352 nm and fluorescence was recorded though λ=455 nm high pass filter with Pro-Data control software from Applied Photophysics, sampling 5000 points a second. For each sample at least 10 repeated mixing trials were measured, from two or more vesicle preparations. Each repeat was separately analyzed using MATLAB v7.4, The MathWorks, Inc (Natick, Mass.). The time course of fluorescence quenching was normalized to the average fluorescence without quencher, for that particular sample, and the first 2-100 ms of the time course was fitted with a stretched exponential. The initial influx rate is quantified as the rate of the stretched exponential at 2 ms.

Shaker potassium channel = Shaker potassium channel (Drosophila melanogaster, UniProt P08510); conditions: cited from earlier work
[2] = test system: gA channel in DC18:1PC/n-decane bilayers; conditions: cited from earlier work; for Single channel: concentration at which the molecule double/half gA channel lifetime: standard bilayer-punch electrophysiological methods

Chain of Shaker potassium channel (P08510 whole entry): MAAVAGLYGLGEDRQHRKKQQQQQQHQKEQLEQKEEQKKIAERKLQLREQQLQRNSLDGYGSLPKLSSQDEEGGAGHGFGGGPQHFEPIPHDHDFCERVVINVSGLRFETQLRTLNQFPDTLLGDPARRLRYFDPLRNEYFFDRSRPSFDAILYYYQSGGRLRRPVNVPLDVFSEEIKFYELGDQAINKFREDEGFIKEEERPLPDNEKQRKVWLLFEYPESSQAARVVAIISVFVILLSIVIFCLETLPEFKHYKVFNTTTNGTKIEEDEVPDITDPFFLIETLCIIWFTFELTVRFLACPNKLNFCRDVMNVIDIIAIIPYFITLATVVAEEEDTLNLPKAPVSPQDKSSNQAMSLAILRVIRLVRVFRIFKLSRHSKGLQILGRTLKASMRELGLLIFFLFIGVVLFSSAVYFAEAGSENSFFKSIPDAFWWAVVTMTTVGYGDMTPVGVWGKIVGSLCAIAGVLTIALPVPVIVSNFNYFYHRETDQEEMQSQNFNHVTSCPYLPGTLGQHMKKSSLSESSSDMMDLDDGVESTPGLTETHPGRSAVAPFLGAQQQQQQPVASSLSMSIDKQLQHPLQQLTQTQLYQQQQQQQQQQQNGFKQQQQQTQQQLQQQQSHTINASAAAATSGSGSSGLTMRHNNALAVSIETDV

Compound | Single channel: concentration at which the molecule double/half gA channel lifetime [2] | Flourescence: concentration at which the molecules double/half the rate of the fluorescence quenching [1] | also measured
NCCc1c(SSc2[nH]c3cc(Br)ccc3c2CCN)[nH]c2cc(Br)ccc12 [BrMT] |  |  | effect on lipid bilayer properties (gA channel activity, stopped-flow) ([1]; stopped-flow experiments): altered lipid bilayer properties; Shaker potassium channel activation (Shaker potassium channel): slows
OC(c1cc(C(F)(F)F)nc2c(C(F)(F)F)cccc12)C1CCCCN1 (centres unmarked) [Mefloquine] | 6 µM | 37 | gA channel frequency ([2]; single-channel electrophysiology): decreases
(−)-epigallocatechin gallate | 0.25 µM | 12 | effect on gA channel conductance ([2]; single-channel): causes conductance flickers or sub-conductance states
O=c1c(-c2ccc(O)cc2)coc2cc(O)cc(O)c12 [Genistein] | 25 µM | 22 | 
[Gd+3] [Gd^3+] | > 30 µM | <1000 | 
C[S+](C)[O-] [Dimethyl sulfoxide] |  | 340,000 | Single channel: concentration at which the molecule double/half gA channel lifetime ([2]; in µM): >410,000; amount that affects bilayer properties ([1]; % of volume): > 0.5%
Oc1cc2c(cc1O)CN(C(=S)NCCc1ccc(Cl)cc1)CCC2 [Capsazepine] | 4 µM | 16 | 
O=c1c(-c2ccc(O)cc2)coc2cc(O[C@@H]3O[C@H](CO)[C@@H](O)[C@H](O)[C@H]3O)cc(O)c12 [Genistin] | >>30 | 910 | 
Triton X-100 | 9 µM | 13 | 
COc1cc(CNC(=O)CCCC/C=C/C(C)C)ccc1O [Capsaicin] | 25 µM | 21 | rate of quencher influx (rate of stretched exponential) ([1]; 10 μM capsaicin): 69±6; rate of quencher influx (rate of stretched exponential) ([1]; 30 μM capsaicin): 85±8; rate of quencher influx (rate of stretched exponential) ([1]; 90 μM capsaicin): 247±27; rate of fluorescence quenching (Tl+ influx) in the presence of gramicidin ([1]; 10, 30, 90 μM, concentration dependent): increased
CCCCCCCCO[C@@H]1O[C@H](CO)[C@@H](O)[C@H](O)[C@H]1O [β-octylglucoside] | 270 µM | 325 | 
